Patent publication US5411977A, “Substituted 2,5-diaryl-4-isothiazolin-3-ones as antiinflammatory and antithrombotic agents” (The Dupont Merck Pharmaceutical Company, priority 1993, dated 1995)

Tested on: IL-lb-induced proteoglycan breakdown in bovine nasal cartilage
Assay: in vitro cytokine-induced cartilage degradation assay (Bovine Nasal Septum Cartilage Degradation Assay)
Assay type: cell-based
Details: Bos taurus; IL-lb (500 ng/ml), 40 hours, 37° C.
Experimental: The compounds are efficacious in an in vitro cytokine-induced cartilage degradationassay (Arner EC and Pratta MA 1989. Arthritis Rheum 32:288-297). The activity of these compounds in blocking IL-lb-induced proteoglycan breakdown in bovine nasal cartilage was assessed.
Bovine nasal cartilage was incubated in Dulbecco's 10 modified Eagle's Medium (DMEM) containing 5% FCS and antibiotics at 37° C. in an atmosphere of 95% air and 5% CO2 for 40 hours in the absence or presence of IL-lb (500 ng/ml), with or without compound. Compounds were dissolved in DMSO (10^-2M) and further diluted with 15 medial to the required concentration and were included throughout the culture period. At the end of incubation, media were removed and assayed proteoglycan breakdown products using the 1,9 dimethylmethylene blue assay for glycosaminoglycans. Compounds were evaluated for the ability to block the stimulated release of proteoglycan in response to IL-l.

IC50	SMILES
13.2 µM	Cc1ccc(-n2sc(-c3ccccc3)cc2=O)cc1 [Example 1, N-(4-methylphenyl)-5-phenyl-4-isothiazolin-3-one]
8.3 µM	CCOC(=O)c1ccc(-n2sc(-c3ccccc3)cc2=O)cc1 [Example 4, N-(4-carbethoxyphenyl)-5-phenyl-4-isothiazolin-3-one]
15 µM	O=c1cc(-c2ccccc2)sn1-c1nc2ccccc2s1 [Example 8, N-(2-benzothiazolyl)-5-phenyl-4-isothiazolin-3-one]
43.5 µM	O=c1c(-c2ccccc2)c(-c2ccccc2)sn1-c1ccccc1 [Example 10, 4,5,N-triphenyl-4-isothiazolin-3-one]
11.2 µM	O=c1cc(-c2ccccc2Cl)sn1-c1ccccc1 [Example 11]
34.5 µM	COc1ccccc1-c1cc(=O)n(-c2ccccc2)s1 [Example 12]
14.8 µM	O=c1cc(-c2ccccc2)sn1-c1ccc(Cl)cc1 [Example 13]
7.2 µM	O=c1cc(-c2ccccc2)sn1-c1ccc(C(F)(F)F)cc1 [Example 15]
31 µM	O=c1cc(-c2ccccc2)sn1-c1ccc([N+](=O)[O-])cc1 [Example 16]
14 µM	Cc1cc([N+](=O)[O-])ccc1-n1sc(-c2ccccc2)cc1=O [Example 17]
7.8 µM	N#Cc1ccc(-n2sc(-c3ccccc3)cc2=O)cc1 [Example 18]
11.3 µM	O=c1cc(-c2ccccc2)sn1-c1cccc(Cl)c1 [Example 19]
19 µM	COc1cccc(-n2sc(-c3ccccc3)cc2=O)c1 [Example 20]
7 µM	O=c1cc(-c2ccccc2)sn1-c1cccc(C(F)(F)F)c1 [Example 21]
14.8 µM	O=c1cc(-c2ccc(Cl)cc2)sn1-c1ccccc1 [Example 28]
18.5 µM	O=c1cc(-c2cccc(Cl)c2)sn1-c1ccccc1 [Example 29]
14 µM	O=c1cc(-c2cccc(C(F)(F)F)c2)sn1-c1ccccc1 [Example 33]
7.2 µM	O=c1cc(-c2ccccc2C(F)(F)F)sn1-c1ccccc1 [Example 34]
7.8 µM	CCOC(=O)c1cccc(-n2sc(-c3ccccc3)cc2=O)c1 [Example 37]
12 µM	CCOC(=O)c1ccccc1-n1sc(-c2ccccc2)cc1=O [Example 38]

Same assay, conditions: Bos taurus; at 30 μM; IL-lb (500 ng/ml), 40 hours, 37° C.

SMILES	inhibition at 30 µM
O=c1c(Br)c(-c2ccccc2)sn1-c1ccccc1 [Example 2, 4-bromo-N,5-diphenyl-4-isothiazolin-3-one]	38%
O=C(O)c1ccc(-n2sc(-c3ccccc3)cc2=O)cc1 [Example 3, N-(4-carboxyphenyl)-5-phenyl-4-isothiazolin-3-one]	19%
NC(=O)c1ccc(-n2sc(-c3ccccc3)cc2=O)cc1 [Example 5, N-(4-carboxamidophenyl)-5-phenyl-4-isothiazolin-3-one]	42%
Nc1ccccc1-n1sc(-c2ccccc2)cc1=O [Example 6, N-(2-aminophenyl) -5-phenyl-4-isothiazolin-3-one]	19%
O=c1cc(-c2ccccc2)sn1-c1ccc(N(S(=O)(=O)C(F)(F)F)S(=O)(=O)C(F)(F)F)cc1 [Example 7, N-(4-(bistrifluoromethane)sulfonamidophenyl)-5-phenyl-4-isothiazolin-3-one]	48%
O=C(O)c1ccc(-c2cc(=O)n(-c3ccccc3)s2)cc1 [Example 9, 5-(4-carboxyphenyl)-N-phenyl-4-isothiazolin-3-one]	18%
COc1ccc(-n2sc(-c3ccccc3)cc2=O)cc1 [Example 14]	85%
Cc1ccccc1-n1sc(-c2ccccc2)cc1=O [Example 22]	52%
O=c1cc(-c2ccccc2)sn1-c1ccccc1Cl [Example 23]	33%
COc1ccccc1-n1sc(-c2ccccc2)cc1=O [Example 24]	61%
O=c1cc(-c2ccccc2)sn1-c1ccccc1C(F)(F)F [Example 25]	25%
O=c1cc(-c2ccccc2)sn1-c1ccccc1[N+](=O)[O-] [Example 26, N-(2-nitrophenyl)-5-phenyl-4-isothiazolin-3-one]	43%
COc1ccc(-c2cc(=O)n(-c3ccccc3)s2)cc1 [Example 30]	37%
O=c1cc(-c2ccc(C(F)(F)F)cc2)sn1-c1ccccc1 [Example 32]	25%
O=C(O)c1cccc(-n2sc(-c3ccccc3)cc2=O)c1 [Example 35]	13%
O=C(O)c1ccccc1-n1sc(-c2ccccc2)cc1=O [Example 36]	26%
Nc1ccc(-n2sc(-c3ccccc3)cc2=O)cc1 [Example 39, N-(4-aminophenyl)-5-phenyl-4-isothiazolin-3-one]	32%
Cc1cc(N)ccc1-n1sc(-c2ccccc2)cc1=O [Example 40]	14%
